Experimental data published in patent US9260439B2, “Dihydropyrrolopyrimidine derivatives” (PFIZER INC., priority 2014, dated 2016).
Counter-ions that a name gives are not always drawn.

What follows are molecules tested against truncated PI3Kα (p110α/iSH2 p85α) (Homo sapiens (Human), UniProt P42336) (assay: PI3KA_Act fluorescence polarization kinase assay (Ki)). Conditions: 1 mM ATP.
Format: biochemical
Description: 2) p110α-iSH2 p85α Complex (Full Length p110α and p85α iSH2)(“PI3KA_Act”)
Genes encoding for full length p110α and p85α nSH-iSH2=niSH2 (p85a aminoacids 322-600) subunits of PI3Kα complex were subcloned from existing constructs into pFASTBAC Dual vector (Life Technologies, Carlsbad, Calif.) using standard cloning procedures. Gene encoding p110α subunit was subcloned into polyhedrine promoter while gene encoding p85α niSH2 domains was subcloned into p10 promoter. Additionally, Human Rhinovirus 3C Protease (“HRV 3C”) site was introduced between nSH2 and iSH2, replacing aminoacids 431-438 of p85α with […] HRV 3C recognition sequence, using standard QuickChange mutagenesis protocol (Agilent Technologies, CA). Recombinant baculovirus was generated using Bac-to-Bac protocol (Life Technologies, Carlsbad, Calif.). Large scale expression was conducted in Sf21 (Life Technologies, Carlsbad, Calif.) cells at a multiplicity of infection (“MOI”)=1 for 48 hours. Cells were lyzed in 50 mM Tris pH 8.0, 250 mM NaCl, 5% glycerol, 0.25 mM TCEP, and 20 mM imidazole. The p110α-niSH2 p85α complex was purified from clarified supernatant using Immobilized Metalo Affinity Chromatography (“IMAC”). The protein was eluted from the column using 50 mM Tris pH 8.0, 200 mM NaCl, 0.25 mM TCEP, and 200 mM imidazole. Following elution p110α-niSH2 p85α complex was dialyzed against 4 liters of 50 mM Tris pH 8.0, 200 mM NaCl, 0.25 mM TCEP, and 40 mM imidazole in the presence of PreScission Protease (1:70 molar ratio of Protease to Protein) and TEV protease (1:40 molar ratio protease to protein) for 16 hours at 4° C. The protein was further purified using reverse IMAC to remove cleaved histidine tag and contaminants captured during initial IMAC purification. The mixture of p110α-iSH2 p85α complex and cleaved nSH2 was recovered in reverse IMAC 40 mM imidazole flow through and 60 mM imidazole wash fractions. Those fractions were pulled together and loaded on Superdex 200 26/60 SEC column equilibrated in 25 mM Tris, pH 8.0, 100 mM NaCl, 2% glycerol, and 2 mM TCEP. Following SEC, chromatography peak fractions containing p110α-iSH2 p85α complex were pulled and concentrated to 4.3 mg/mL. Purity and integrity of the complex was confirmed using LCMS, analytical SEC and SDS-PAGE (sodium dodecyl sulfate polyacrylamide gel electrophoresis) analysis.
The biochemical assays of kinase activity of full-length PI3Kα (full-length p110α/p85a) or truncated PI3Kα (p110α/iSH2 p85a) were conducted using a fluorescence polarization format similar to the procedure of Yuan J., et al., (2011) “PF-04691502, a Potent and Selective Oral Inhibitor of PI3K and mTOR Kinases with Antitumor Activity”, Mol Cancer Ther. 10, 2189-2199. The enzymatic reactions were conducted in 50 μL volumes in 96-well plates. The reactions contained human recombinant PI3Kα (2 nM full-length p110α/p85α or 0.5 nM p110α/iSH2 p85) and 30 μM phosphatidylinositol 4,5-bisphosphate (“PIP2”) (Cayman Chemical Company, Ann Arbor, Mich.) and were sonicated for 1 minute prior to adding PI3Kα enzyme (PI3KA_Act or PI3KA_FL), DMSO or test compound (12-point 3-fold serial dilution, 3 μM top dose, 2° A) DMSO final concentration), 5 mM MgCl2, 50 mM HEPES pH 7.4, 150 mM NaCl, 1 mM DTT ((2S,3S)-1,4-bis(sulfanyl)butane-2,3-diol), and 0.05% 3-[(3-cholamidopropyl)dimethylammonio]-1-propanesulfonate (“CHAPS”). […] The reactions were incubated for 30 min at room temperature, stopped with EDTA pH 8 (10 mM final concentration). In a detection plate, 15 μL of detector/probe mixture, containing 480 nM GST-Grp1 PH domain protein (University of Dundee, Dundee, UK) and 12 nM carboxytetramethylrhodamine (“TAMRA”)-tagged fluorescent phosphatidylinositol (3,4,5)-triphosphate (“PIP3”) (Echelon Biosciences, Inc., Salt Lake City, Utah) in assay buffer, was mixed with 15 μL of kinase reaction mixture. The plate was shaken for 30 minutes and fluorescence polarization values were measured on an LJL Analyst HT plate reader (Molecular Devices, Sunnyvale, Calif.). […]

Chain of truncated PI3Kα (p110α/iSH2 p85α) (P42336 whole entry, the tested form may be a part): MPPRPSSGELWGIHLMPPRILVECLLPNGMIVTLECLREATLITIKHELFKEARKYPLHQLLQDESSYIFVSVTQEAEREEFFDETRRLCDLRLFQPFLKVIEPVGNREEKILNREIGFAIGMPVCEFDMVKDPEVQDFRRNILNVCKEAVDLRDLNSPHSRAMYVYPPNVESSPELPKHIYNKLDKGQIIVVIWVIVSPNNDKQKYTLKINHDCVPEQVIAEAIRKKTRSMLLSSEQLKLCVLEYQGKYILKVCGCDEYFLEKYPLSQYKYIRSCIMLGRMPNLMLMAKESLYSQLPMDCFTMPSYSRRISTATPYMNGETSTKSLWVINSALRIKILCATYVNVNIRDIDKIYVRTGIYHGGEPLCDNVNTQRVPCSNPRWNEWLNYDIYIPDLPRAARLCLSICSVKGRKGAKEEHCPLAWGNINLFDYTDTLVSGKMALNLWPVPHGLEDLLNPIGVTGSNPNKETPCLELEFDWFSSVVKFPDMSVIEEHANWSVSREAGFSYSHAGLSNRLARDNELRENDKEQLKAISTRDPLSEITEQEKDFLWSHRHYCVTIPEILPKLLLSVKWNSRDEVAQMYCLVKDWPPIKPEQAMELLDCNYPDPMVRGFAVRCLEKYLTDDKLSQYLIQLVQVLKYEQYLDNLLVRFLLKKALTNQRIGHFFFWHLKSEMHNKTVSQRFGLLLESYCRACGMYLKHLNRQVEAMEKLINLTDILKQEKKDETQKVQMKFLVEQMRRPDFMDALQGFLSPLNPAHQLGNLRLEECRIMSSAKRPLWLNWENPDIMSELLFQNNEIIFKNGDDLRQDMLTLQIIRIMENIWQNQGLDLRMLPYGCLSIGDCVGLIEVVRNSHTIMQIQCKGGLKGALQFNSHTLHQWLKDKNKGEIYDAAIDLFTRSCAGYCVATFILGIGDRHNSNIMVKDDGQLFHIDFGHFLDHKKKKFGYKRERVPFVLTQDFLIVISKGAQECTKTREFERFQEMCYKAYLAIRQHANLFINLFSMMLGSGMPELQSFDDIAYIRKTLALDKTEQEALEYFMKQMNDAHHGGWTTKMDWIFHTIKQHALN

SMILES	Ki [nM]	PI3KA_Act Ki [nM]
C[C@]1(N2CCc3c(-c4cnc(N)nc4)nc(N4CCOCC4)nc32)CCN(C2CCNC2=O)C1 (stereo partly drawn) [Example 6, (3S)-3-[4-(2-aminopyrimidin-5-yl)-2-(morpholin-4-yl)-5,6-dihydro-7H-pyrrolo[2,3-d]pyrimidin-7-yl]-3-methyl-1,3′-bipyrrolidin-2′-one]	0.096	
CC1(C)CN=C(N2CC[C@](C)(N3CCc4c(-c5cnc(N)nc5)nc(N5CCOCC5)nc43)C2)O1 [Example 8, 5-{7-[(3S)-1-(5,5-dimethyl-4,5-dihydro-1,3-oxazol-2-yl)-3-methylpyrrolidin-3-yl]-2-(morpholin-4-yl)-6,7-dihydro-5H-pyrrolo[2,3-d]pyrimidin-4-yl}pyrimidin-2-amine]		0.019
CC1(C)COC(N2CC[C@](C)(N3CCc4c(-c5cnc(N)nc5)nc(N5CCOCC5)nc43)C2)=N1 [Example 9, 5-{7-[(3S)-1-(4,4-dimethyl-4,5-dihydro-1,3-oxazol-2-yl)-3-methylpyrrolidin-3-yl]-2-(morpholin-4-yl)-6,7-dihydro-5H-pyrrolo[2,3-d]pyrimidin-4-yl}pyrimidin-2-amine]		<0.018
[2H]C1([2H])OC([2H])([2H])C([2H])([2H])N(c2nc(-c3cnc(N)nc3)c3c(n2)N([C@@]2(C)CCN(C(=O)C(C)(C)N)C2)CC3)C1([2H])[2H] [Example 10, (S)-2-amino-1-(3-(4-(2-aminopyrimidin-5-yl)-2-morpholino-d8)-5,6-dihydro-7H-pyrrolo[2,3-d]pyrimidin-7-yl)-3-methylpyrrolidin-1-yl)-2-methylpropan-1-one hydrochloride]	< 0.018	
C[C@H]1COCCN1c1nc(-c2cnc(N)nc2)c2c(n1)N([C@H]1CCN(C(=O)NC(C)(C)C)C1)CC2 [Example 140]		0.318
C[C@H]1COCCN1c1nc(-c2cnc(N)nc2)c2c(n1)N(C1CN(C(=O)OC(C)(C)C)C1)CC2 [Example 141]		0.471
CNC(=O)COC(=O)N1CC(N2CCc3c(-c4cnc(N)nc4)nc(N4CCOCC4)nc32)C1 [Example 142]		0.159
CNC(=O)COC(=O)N1CC(N2CCc3c(-c4cnc(N)nc4)nc(N4CCOC[C@@H]4C)nc32)C1 [Example 143]		0.262
CNS(=O)(=O)N1CC[C@H](N2CCc3c(-c4cnc(N)nc4)nc(N4CCOC[C@H]4C)nc32)C1 [Example 144]		3.251
C[C@@H]1COCCN1c1nc(-c2cnc(N)nc2)c2c(n1)N([C@H]1CCN(S(C)(=O)=O)C1)CC2 [Example 145]		4.011
CNS(=O)(=O)N1CC(N2CCc3c(-c4cnc(N)nc4)nc(N4CCOCC4)nc32)C1 [Example 147]		0.064
CNS(=O)(=O)NCCOC(=O)N1CC(N2CCc3c(-c4cnc(N)nc4)nc(N4CCOCC4)nc32)C1 [Example 148]		0.094
C[C@]1(N2CCc3c(-c4cnc(N)nc4)nc(N4CCOCC4)nc32)CCN(S(C)(=O)=O)C1 [Example 149]		0.027
C[C@@]1(N2CCc3c(-c4cnc(N)nc4)nc(N4CCOCC4)nc32)CCN(S(C)(=O)=O)C1 [Example 150]		0.044
CN(C)C(=O)COC(=O)N1CC(N2CCc3c(-c4cnc(N)nc4)nc(N4CCOCC4)nc32)C1 [Example 151]		0.107
C[C@H]1COCCN1c1nc(-c2cnc(N)nc2)c2c(n1)N(C1CN(C(=O)OCC(=O)N(C)C)C1)CC2 [Example 152]		0.103
COCCCS(=O)(=O)N1CC(N2CCc3c(-c4cnc(N)nc4)nc(N4CCOC[C@@H]4C)nc32)C1 [Example 153]		0.105
C[C@H]1COCCN1c1nc(-c2cnc(N)nc2)c2c(n1)N(C1CN(S(=O)(=O)c3cn(C)cn3)C1)CC2 [Example 154]		0.286
COCCS(=O)(=O)N1CC(N2CCc3c(-c4cnc(N)nc4)nc(N4CCOC[C@@H]4C)nc32)C1 [Example 155]		0.116
C[C@H]1COCCN1c1nc(-c2cnc(N)nc2)c2c(n1)N([C@H]1CCN(C(=O)OC3COC3)C1)CC2 [Example 156]		0.088
C[C@H]1COCCN1c1nc(-c2cnc(N)nc2)c2c(n1)N(C(C)(C)C)CC2 [Example 157]		0.173

SMILES	Ki [nM]	PI3KA_Act Ki [nM]
Nc1ncc(-c2nc(N3CCOCC3)nc3c2CCN3C23CC(C2)C3)cn1 [Example 158]		0.200
C[C@H]1COCCN1c1nc(-c2cnc(N)nc2)c2c(n1)N(C1CN(S(=O)(=O)CC3CC3)C1)CC2 [Example 159]		0.097
C[C@H]1COCCN1c1nc(-c2cnc(N)nc2)c2c(n1)N(C1CN(S(=O)(=O)c3cnn(C)c3)C1)CC2 [Example 160]		0.221
COCCCS(=O)(=O)N1CC(N2CCc3c(-c4cnc(N)nc4)nc(N4CCOCC4)nc32)C1 [Example 161]		0.202
C[C@H]1COCCN1c1nc(-c2cnc(N)nc2)c2c(n1)N(C1CN(S(=O)(=O)C(F)(F)F)C1)CC2 [Example 163]		0.188
C[C@H]1COCCN1c1nc(-c2cnc(N)nc2)c2c(n1)N(C1(C)CCN(S(C)(=O)=O)C1)CC2 (some centres unmarked) [Example 164]		0.030
COC(=O)C(C)(C)N1CCc2c(-c3cnc(N)nc3)nc(N3CCOCC3)nc21 [Example 165]		0.449
C[C@H]1COCCN1c1nc(-c2cnc(N)nc2)c2c(n1)N(C1CN(P(C)(C)=O)C1)CC2 [Example 166]		0.280
C[C@H](O)COC(=O)N1CC(N2CCc3c(-c4cnc(N)nc4)nc(N4CCOCC4)nc32)C1 [Example 167]		0.230
C[C@H]1COCCN1c1nc(-c2cnc(N)nc2)c2c(n1)N([C@H]1CCN(P(C)(C)=O)C1)CC2 [Example 168]		0.297
Nc1ncc(-c2nc(N3CCOCC3)nc3c2CCN3C2CN(S(=O)(=O)CC3CC3)C2)cn1 [Example 169]		0.129
COCCS(=O)(=O)N1CC(N2CCc3c(-c4cnc(N)nc4)nc(N4CCOCC4)nc32)C1 [Example 170]		0.124
Nc1ncc(-c2nc(N3CCOC[C@@H]3CO)nc3c2CCN3C2CC(F)(F)C2)cn1 [Example 171]		2.745
CNS(=O)(=O)N1CC[C@@](C)(N2CCc3c(-c4cnc(N)nc4)nc(N4CCOCC4)nc32)C1 [Example 172]		0.029
CNS(=O)(=O)N1CC[C@](C)(N2CCc3c(-c4cnc(N)nc4)nc(N4CCOCC4)nc32)C1 [Example 173]		<0.018
C[C@H]1COCCN1c1nc(-c2cnc(N)nc2)c2c(n1)N([C@]1(C)CCN(S(C)(=O)=O)C1)CC2 [Example 174]		0.030
C[C@H]1COCCN1c1nc(-c2cnc(N)nc2)c2c(n1)N([C@@]1(C)CCN(S(C)(=O)=O)C1)CC2 [Example 175]		0.023
CC(C)C(C)(C)N1CCc2c(-c3cnc(N)nc3)nc(N3CCOCC3)nc21 [Example 176]		0.462
C[C@H]1COCCN1c1nc(-c2cnc(N)nc2)c2c(n1)N([C@@H]1CCN(P(C)(C)=O)C1)CC2 [Example 177]		0.615
Cn1cc(S(=O)(=O)N2CC(N3CCc4c(-c5cnc(N)nc5)nc(N5CCOCC5)nc43)C2)cn1 [Example 178]		0.125
